Source: US20170037028A1 (BAYER PHARMA AKTIENGESELLSCHAFT, priority 2013, published 2017)

The compounds below were run against T1, GLUT1 (Homo sapiens, UniProt P11166) (assay: Indirect measurement of GLUT1 activity by quantification of intracellular ATP levels (glucose induced ATP increase)). Conditions: read-out: IC50 regarding glucose induced ATP increase (GLUT1 inhibition).
T1 sequence (P11166 1-492): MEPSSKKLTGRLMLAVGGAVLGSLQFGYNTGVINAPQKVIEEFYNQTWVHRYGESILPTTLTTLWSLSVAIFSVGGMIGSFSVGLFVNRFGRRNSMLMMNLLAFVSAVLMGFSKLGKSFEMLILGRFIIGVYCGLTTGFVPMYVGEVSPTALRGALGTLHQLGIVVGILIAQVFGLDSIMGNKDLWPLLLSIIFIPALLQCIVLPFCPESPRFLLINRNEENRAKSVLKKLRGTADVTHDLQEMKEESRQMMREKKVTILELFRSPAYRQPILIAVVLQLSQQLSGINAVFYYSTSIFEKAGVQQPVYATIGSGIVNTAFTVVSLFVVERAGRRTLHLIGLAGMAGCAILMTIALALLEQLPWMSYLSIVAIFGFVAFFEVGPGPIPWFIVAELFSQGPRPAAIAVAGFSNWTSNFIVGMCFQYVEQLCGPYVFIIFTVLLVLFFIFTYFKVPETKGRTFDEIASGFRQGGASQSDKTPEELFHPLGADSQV
Assay type: cell-based
Set-up: endogenous in cells; host or cells: DLD1 or CHO-K1
How it was run: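 Intracellular ATP was measured by CellTiter-Glo luminescence as an indirect readout of transport: glucose-driven for GLUT1, fructose-driven for GLUT2. DLD1 or CHO-K1 cells were used alongside an oxidative phosphorylation inhibitor. Beforehand, cells were held overnight in glucose-free 1% FCS medium to deplete ATP.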

Question: `Cc1nn(CC(=O)Nc2ccc(F)cc2)c(C)c1NC(=O)c1cc(C(N)=O)nc2ccccc12` [Example 1692] was tested. Which IC50 did it give?
Answer: 208 nM

Question: Which IC50 does the source give for `COc1cc(C(=O)Nc2c(C)nn(Cc3c(F)cccc3F)c2C)c2ccccc2n1` [Example 42, N-[1-(2,6-difluorobenzyl)-3,5-dimethyl-1H-pyrazol-4-yl]-2-methoxyquinoline-4-carboxamide] here?
Answer: 30.9 nM

Question: Which IC50 does the source give for `Cc1nn(CC2CCCCC2)c(C)c1NC(=O)c1cc(C(F)(F)F)nc2ccc(Br)cc12` [Example 170, 6-bromo-N-[1-(cyclohexylmethyl)-3,5-dimethyl-1H-pyrazol-4-yl]-2-(trifluoromethyl)quinoline-4-carboxamide] here?
Answer: 54.4 nM

Question: With `Cc1c(NC(=O)c2cc(C(N)=O)nc3cccc(F)c23)c(C(F)(F)F)nn1Cc1cccc(C#N)n1` [Example 1688] as the compound, how does the IC50 read?
Answer: 86.8 nM

Question: For `Cc1c(NC(=O)c2cc(C(=O)NCCO)nc3cc(F)ccc23)c(C(F)(F)F)nn1Cc1ccc(C#N)cc1` [Example 1403], which IC50 is on record?
Answer: 245 nM

Question: For `Cc1nn(Cc2nc(C3CC3)no2)c(C)c1NC(=O)c1cc(C(N)=O)nc2ccccc12` [Example 1501], which IC50 is on record?
Answer: 73.7 nM

Question: How did the IC50 turn out when `Cc1c(NC(=O)c2cc(C(F)(F)F)nc3c(Cl)cc(Cl)cc23)c(C(F)(F)F)nn1Cc1ccc(F)cc1F` [Example 205, 6,8-dichloro-N-[1-(2,4-difluorobenzyl)-5-methyl-3-(trifluoromethyl)-1H-pyrazol-4-yl]-2-(trifluoromethyl)quinoline-4-carboxamide] was run?
Answer: 613 nM

Question: For `Cc1nn(Cc2ccccc2C#N)c(C)c1NC(=O)c1cc(C(F)(F)F)nc2ccc(Br)cc12` [Example 6, 6-bromo-N-[1-(2-cyanobenzyl)-3,5-dimethyl-1H-pyrazol-4-yl]-2-(trifluoromethyl)quinoline-4-carboxamide], which IC50 is on record?
Answer: 4.7 nM

Question: With `Cc1ccc2nc(C)cc(C(=O)Nc3c(C)nn(Cc4cccc(OC(F)(F)F)c4)c3C)c2c1` [Example 117, N-{3,5-dimethyl-1-[3-(trifluoromethoxy)benzyl]-1H-pyrazol-4-yl}-2,6-dimethylquinoline-4-carboxamide] as the compound, how does the IC50 read?
Answer: 938 nM

Question: With `Cc1c(NC(=O)c2cc(C(=O)NS(C)(=O)=O)nc3ccccc23)c(C(F)(F)F)nn1Cc1ccc(C#N)cc1` [Example 426, N^4-[1-(4-cyanobenzyl)-5-methyl-3-(trifluoromethyl)-1H-pyrazol-4-yl]-N^2-(methylsulfonyl)quinoline-2,4-dicarboxamide] as the compound, how does the IC50 read?
Answer: 2530 nM

Question: `Cc1nn(Cc2ccc(C(=O)NCCN3CCCCC3)cc2)c(C)c1NC(=O)c1cc(C(F)(F)F)nc2ccc(Br)cc12` [Example 1150] was tested. Which IC50 did it give?
Answer: 128 nM

Question: `Cc1cc(Cn2nc(C)c(NC(=O)c3cc(C(N)=O)nc4cc(F)ccc34)c2C)no1` [Example 1541] was tested. Which IC50 did it give?
Answer: 15.4 nM

Question: For `CCS(=O)(=O)N1CCC(Cn2nc(C(F)(F)F)c(NC(=O)c3cc(C(N)=O)nc4cc(F)c(Cl)cc34)c2C)CC1` [Example 413, 6-chloro-N^4-[1-{[1-(ethylsulfonyl)piperidin-4-yl]methyl}-5-methyl-3-(trifluoromethyl)-1H-pyrazol-4-yl]-7-fluoroquinoline-2,4-dicarboxamide], which IC50 is on record?
Answer: 5.6 nM

Question: `Cc1nn(Cc2ccc(C(=O)Nc3nccs3)cc2)c(C)c1NC(=O)c1cc(C(F)(F)F)nc2ccc(Br)cc12` [Example 1047] was tested. Which IC50 did it give?
Answer: 11.2 nM

Question: With `Cc1c(NC(=O)c2cc(C(N)=O)nc3ccccc23)c(C(F)(F)F)nn1Cc1c(F)cccc1F` [Example 1628] as the compound, how does the IC50 read?
Answer: 15.3 nM

Question: With `Cc1nn(Cc2ccc(C(=O)NC3CCNC3=O)cc2)c(C)c1NC(=O)c1cc(C(F)(F)F)nc2ccc(Br)cc12` (racemic) [Example 1166] as the compound, how does the IC50 read?
Answer: 170 nM

Question: How did the IC50 turn out when `Cc1nn(Cc2ccc(C(=O)NCC(O)CO)cn2)c(C)c1NC(=O)c1cc(C(F)(F)F)nc2ccc(Br)cc12` (stereo not drawn) [Example 1263] was run?
Answer: 2320 nM

Question: For `Cc1cccc2nc(C(N)=O)cc(C(=O)Nc3c(C(F)(F)F)nn(Cc4ccc(C#N)cc4)c3C)c12` [Example 244, N^4-[1-(4-cyanobenzyl)-5-methyl-3-(trifluoromethyl)-1H-pyrazol-4-yl]-5-methylquinoline-2,4-dicarboxamide], which IC50 is on record?
Answer: 17.6 nM

Question: With `Cc1c(NC(=O)c2cc(C(N)=O)nc3cc(F)ccc23)c(C(F)(F)F)nn1C(C)c1ccccc1` (single isomer, unassigned) [Example 379, (R or S)-7-fluoro-N^4-[5-methyl-1-(1-phenylethyl)-3-(trifluoromethyl)-1H-pyrazol-4-yl]quinoline-2,4-dicarboxamide] as the compound, how does the IC50 read?
Answer: 862 nM

Question: Which IC50 does the source give for `Cc1c(NC(=O)c2cc(C(N)=O)nc3cc(F)c(Cl)cc23)c(C(F)(F)F)nn1Cc1ccc(F)c(F)c1` [Example 1444] here?
Answer: 11.6 nM

Question: With `COc1ccc(CCn2nc(C)c(NC(=O)c3cc(C(F)(F)F)nc4ccc(Br)cc34)c2C)cc1` [Example 1350] as the compound, how does the IC50 read?
Answer: 41.6 nM

Question: With `CSc1cc(C(=O)Nc2c(C(F)(F)F)nn(Cc3ccc(C#N)cc3)c2C)c2ccccc2n1` [Example 382, N-[1-(4-cyanobenzyl)-5-methyl-3-(trifluoromethyl)-1H-pyrazol-4-yl]-2-(methylsulfanyl)quinoline-4-carboxamide] as the compound, how does the IC50 read?
Answer: 26.1 nM

Question: For `Cc1cccc(Cn2nc(C(F)(F)F)c(NC(=O)c3cc(C(N)=O)nc4cc(F)c(Cl)cc34)c2C)c1` [Example 1481], which IC50 is on record?
Answer: 5.5 nM

Question: How did the IC50 turn out when `Cc1nn(CC2CCN(S(=O)(=O)C3CC3)CC2)c(C)c1NC(=O)c1cc(C(N)=O)nc2ccccc12` [Example 1516] was run?
Answer: 26.1 nM

Question: How did the IC50 turn out when `Cc1nn(Cc2ccc(C(=O)Nc3cccc(C(N)=O)c3)cc2)c(C)c1NC(=O)c1cc(C(F)(F)F)nc2ccc(Br)cc12` [Example 1185] was run?
Answer: 247 nM

Question: Which IC50 does the source give for `Cc1nn(Cc2ccc(C(=O)N3CC4(CCS4(=O)=O)C3)cc2)c(C)c1NC(=O)c1cc(C(F)(F)F)nc2ccc(Br)cc12` [Example 1087] here?
Answer: 32.2 nM

Question: For `Cc1nn(Cc2c(F)cc(F)cc2F)c(C)c1NC(=O)c1cc(C(F)(F)F)nc2c(Cl)cc(Cl)cc12` [Example 57, 6,8-dichloro-N-[3,5-dimethyl-1-(2,4,6-trifluorobenzyl)-1H-pyrazol-4-yl]-2-(trifluoromethyl)quinoline-4-carboxamide], which IC50 is on record?
Answer: 66.7 nM

Question: With `Cc1ccc2nc(C)cc(C(=O)Nc3c(C(F)(F)F)nn(Cc4ccc(F)c(F)c4)c3C)c2c1` [Example 203, N-[1-(3,4-difluorobenzyl)-5-methyl-3-(trifluoromethyl)-1H-pyrazol-4-yl]-2,6-dimethylquinoline-4-carboxamide] as the compound, how does the IC50 read?
Answer: 602 nM

Question: With `COc1cc(C(=O)Nc2c(C(F)(F)F)nn(Cc3ccc(S(C)(=O)=O)cc3)c2C)c2ccccc2n1` [Example 1431] as the compound, how does the IC50 read?
Answer: 138 nM

Question: For `CNC(=O)N(C)CCNC(=O)c1ccc(Cn2nc(C)c(NC(=O)c3cc(C(F)(F)F)nc4ccc(Br)cc34)c2C)cc1` [Example 1043], which IC50 is on record?
Answer: 8.8 nM

Question: Which IC50 does the source give for `COc1cc(C#N)ccc1Cn1nc(C)c(NC(=O)c2cc(C(N)=O)nc3cc(F)ccc23)c1C` [Example 1649] here?
Answer: 67.2 nM

Question: Which IC50 does the source give for `Cc1nn(Cc2ccc(C(=O)NCCCC(C)(C)CO)cc2)c(C)c1NC(=O)c1cc(C(F)(F)F)nc2ccc(Br)cc12` [Example 1107] here?
Answer: 52.2 nM

Question: With `Cc1cc(Cn2nc(C)c(NC(=O)c3cc(C(N)=O)nc4cc(F)ccc34)c2C)on1` [Example 1561] as the compound, how does the IC50 read?
Answer: 10.4 nM

Question: `COc1cc(C(=O)Nc2c(C)nn(Cc3ccc(F)cc3F)c2C)c2ccccc2n1` [Example 17, N-[1-(2,4-difluorobenzyl)-3,5-dimethyl-1H-pyrazol-4-yl]-2-methoxyquinoline-4-carboxamide] was tested. Which IC50 did it give?
Answer: 12.2 nM

Question: Which IC50 does the source give for `Cc1c(NC(=O)c2cc(C(N)=O)nc3cc(F)ccc23)c(C(F)(F)F)nn1C(C)c1ccccc1` (racemic) [Example 334, (±)-7-fluoro-N^4-[5-methyl-1-(1-phenylethyl)-3-(trifluoromethyl)-1H-pyrazol-4-yl]quinoline-2,4-dicarboxamide] here?
Answer: 7.5 nM

Question: Which IC50 does the source give for `Cc1nn(Cc2ccccc2C#N)c(C)c1NC(=O)c1cc(C(N)=O)nc2ccc(Br)cc12` [Example 268, 6-bromo-N^4-[1-(2-cyanobenzyl)-3,5-dimethyl-1H-pyrazol-4-yl]quinoline-2,4-dicarboxamide] here?
Answer: 0.6 nM

Question: `Cc1c(NC(=O)c2cc(C(N)=O)nc3cc(F)ccc23)c(C(F)(F)F)nn1Cc1ncc(C#N)cn1` [Example 423, N^4-{1-[(5-cyanopyrimidin-2-yl)methyl]-5-methyl-3-(trifluoromethyl)-1H-pyrazol-4-yl}-7-fluoroquinoline-2,4-dicarboxamide] was tested. Which IC50 did it give?
Answer: 6.7 nM

Question: For `Cc1c(NC(=O)c2cc(C(N)=O)nc3cccc(F)c23)c(C(F)(F)F)nn1Cc1ncccc1C#N` [Example 1395], which IC50 is on record?
Answer: 12.6 nM

Question: Which IC50 does the source give for `Cc1nn(Cc2ccc(C(=O)Nc3ccncc3)cc2)c(C)c1NC(=O)c1cc(C(F)(F)F)nc2ccc(Br)cc12` [Example 1173] here?
Answer: 198 nM

Question: For `COCCN(C(=O)c1cc(C(F)(F)F)nc2ccc(Br)cc12)c1c(C)nn(Cc2ccc(F)cc2)c1C` [Example 194, 6-bromo-N-[1-(4-fluorobenzyl)-3,5-dimethyl-1H-pyrazol-4-yl]-N-(2-methoxyethyl)-2-(trifluoromethyl)quinoline-4-carboxamide], which IC50 is on record?
Answer: 229 nM

Question: `Cc1c(NC(=O)c2cc(C(N)=O)nc3cc(F)c(Cl)cc23)c(C(F)(F)F)nn1Cc1ccc(C#N)cc1` [Example 213, 6-chloro-N^4-[1-(4-cyanobenzyl)-5-methyl-3-(trifluoromethyl)-1H-pyrazol-4-yl]-7-fluoroquinoline-2,4-dicarboxamide] was tested. Which IC50 did it give?
Answer: 0.7 nM

Question: Which IC50 does the source give for `COc1cc(C#N)ccc1Cn1nc(C(F)(F)F)c(NC(=O)c2cc(C(N)=O)nc3cc(F)c(Cl)cc23)c1C` [Example 1648] here?
Answer: 2.3 nM
